Patent US20250213550A1, “COMPOUNDS AND METHODS FOR TREATING INFLAMMATORY BOWEL DISEASE” (Gilead Sciences, Inc., priority 2023, published 2025)
Where two headings read alike, the source gives them in different places.

Test system: LPS-stimulated pERK in monocytes (TPL2 pathway)
Assay: Ex vivo LPS-stimulated pERK in monocytes of whole blood after Compound 1 dosing (flow cytometry)
Set-up: species or system human
Details: for inhibition at 300 mg / inhibition at 600 mg / inhibition at 900 mg / inhibition at 75 mg: Homo sapiens, Monocyte; for inhibition at 75 mg: 75 mg QD multiple dose
Experimental: For Cohorts 1-4, whole blood PD sampling occurred relative to the dose of Compound 1 at the following time points: • Day 1: 0 pre-dose (≤5 min prior to dosing), 1, 2, 3, 4, 8, 12, 24 and 36 hours post-dose
For Cohorts 5-9, whole blood PD sampling occurred relative to the dose of Compound 1 at the following time points: • Day 1: 0 pre-dose (≤5 min prior to dosing), 1, 2, 3, 4, 8, 12, and 24 hours post-dose • Day 10: 0 pre-dose (≤5 min prior to dosing), 1, 2, 3, 4, 8, 12, 24, 36, 48, 72, 96, and 120 hours post-dose
Whole blood PD Samples were stimulated ex vivo with lipopolysaccharide (LPS) or phosphate buffered saline (PBS), and the phosphorylation of extracellular signal-related kinase (pERK) was detected in monocytes by flow cytometry.
Pharmacodynamic changes after single and multiple doses of Compound 1 were also investigated by monitoring, in whole blood samples, stimulated with either lipopolysaccharide (LPS) or PBS for 15 minutes at 37° C. Changes to the phosphorylation of extracellular signal-regulated kinases (pERK) was measured in monocytes by flow cytometry, defined as CD15−CD14+.
Pharmacodynamic parameters for Compound 1 were calculated as percent change in pERK signal relative to Day 1 pre-dose (baseline) for all evaluable participants.
Multiple Ascending Doses: Pharmacodynamic parameters after multiple doses of Compound 1 were also calculated as percent change in pERK signal relative to Day 1 pre-dose (baseline) for all evaluable participants.

Cn1ccc2c([C@@H](c3cn(C45CC(C4)C5)nn3)N(C(=O)OCOP(=O)(O)O)c3cc(Cl)c4ncc(C#N)c(NCC(C)(C)C)c4c3)cccc2c1=O [Compound 1]
inhibition at 300 mg (300 mg QD multiple dose, Day 1 1 hour, mean (SD), read-out: pERK Signal, % Inhibition): 89.1%
inhibition at 300 mg (300 mg QD multiple dose, Day 1 1 hour, median, read-out: pERK Signal, % Inhibition): 93.8%
inhibition at 300 mg (300 mg QD multiple dose, Day 1 3 hours, mean (SD), read-out: pERK Signal, % Inhibition): 95.7%
inhibition at 300 mg (300 mg QD multiple dose, Day 1 3 hours, median, read-out: pERK Signal, % Inhibition): 97.1%
inhibition at 300 mg (300 mg QD multiple dose, Day 1 12 hours, mean (SD), read-out: pERK Signal, % Inhibition): 75.3%
inhibition at 300 mg (300 mg QD multiple dose, Day 1 12 hours, median, read-out: pERK Signal, % Inhibition): 74.3%
inhibition at 300 mg (300 mg QD multiple dose, Day 10 1 hour, mean (SD), read-out: pERK Signal, % Inhibition): 96.8%
inhibition at 300 mg (300 mg QD multiple dose, Day 10 1 hour, median, read-out: pERK Signal, % Inhibition): 97.1%
inhibition at 300 mg (300 mg QD multiple dose, Day 10 3 hours, mean (SD), read-out: pERK Signal, % Inhibition): 98.3%
inhibition at 300 mg (300 mg QD multiple dose, Day 10 3 hours, median, read-out: pERK Signal, % Inhibition): 98.7%
inhibition at 300 mg (300 mg QD multiple dose, Day 10 12 hours, mean (SD), read-out: pERK Signal, % Inhibition): 94%
inhibition at 300 mg (300 mg QD multiple dose, Day 10 12 hours, median, read-out: pERK Signal, % Inhibition): 95.7%
inhibition at 300 mg (300 mg QD multiple dose, Day 10 24 hours, mean (SD), read-out: pERK Signal, % Inhibition): 92.2%
inhibition at 300 mg (300 mg QD multiple dose, Day 10 24 hours, median, read-out: pERK Signal, % Inhibition): 91.6%
inhibition at 600 mg (600 mg BID multiple dose, Day 1 1 hour, mean (SD), read-out: pERK Signal, % Inhibition): 79.9%
inhibition at 600 mg (600 mg BID multiple dose, Day 1 1 hour, median, read-out: pERK Signal, % Inhibition): 74.3%
inhibition at 600 mg (600 mg BID multiple dose, Day 1 3 hours, mean (SD), read-out: pERK Signal, % Inhibition): 99.9%
inhibition at 600 mg (600 mg BID multiple dose, Day 1 3 hours, median, read-out: pERK Signal, % Inhibition): 99.9%
inhibition at 600 mg (600 mg BID multiple dose, Day 1 12 hours, mean (SD), read-out: pERK Signal, % Inhibition): 84.2%
inhibition at 600 mg (600 mg BID multiple dose, Day 1 12 hours, median, read-out: pERK Signal, % Inhibition): 91%
inhibition at 600 mg (600 mg BID multiple dose, Day 10 1 hour, mean (SD), read-out: pERK Signal, % Inhibition): 99.5%
inhibition at 600 mg (600 mg BID multiple dose, Day 10 1 hour, median, read-out: pERK Signal, % Inhibition): 100%
inhibition at 600 mg (600 mg BID multiple dose, Day 10 3 hours, mean (SD), read-out: pERK Signal, % Inhibition): 100%
inhibition at 600 mg (600 mg BID multiple dose, Day 10 3 hours, median, read-out: pERK Signal, % Inhibition): 100%
inhibition at 600 mg (600 mg BID multiple dose, Day 10 12 hours, mean (SD), read-out: pERK Signal, % Inhibition): 100%
inhibition at 600 mg (600 mg BID multiple dose, Day 10 12 hours, median, read-out: pERK Signal, % Inhibition): 100%
inhibition at 600 mg (600 mg BID multiple dose, Day 10 24 hours, mean (SD), read-out: pERK Signal, % Inhibition): 103%
inhibition at 600 mg (600 mg BID multiple dose, Day 10 24 hours, median, read-out: pERK Signal, % Inhibition): 102%
inhibition at 900 mg (900 mg QD multiple dose, Day 1 1 hour, mean (SD), read-out: pERK Signal, % Inhibition): 88.9%
inhibition at 900 mg (900 mg QD multiple dose, Day 1 1 hour, median, read-out: pERK Signal, % Inhibition): 95%
inhibition at 900 mg (900 mg QD multiple dose, Day 1 3 hours, mean (SD), read-out: pERK Signal, % Inhibition): 99.8%
inhibition at 900 mg (900 mg QD multiple dose, Day 1 3 hours, median, read-out: pERK Signal, % Inhibition): 99.6%
inhibition at 900 mg (900 mg QD multiple dose, Day 1 12 hours, mean (SD), read-out: pERK Signal, % Inhibition): 95.2%
inhibition at 900 mg (900 mg QD multiple dose, Day 1 12 hours, median, read-out: pERK Signal, % Inhibition): 95.3%
inhibition at 900 mg (900 mg QD multiple dose, Day 10 1 hour, mean (N=1), read-out: pERK Signal, % Inhibition): 99.4%
inhibition at 900 mg (900 mg QD multiple dose, Day 10 1 hour, median (N=1), read-out: pERK Signal, % Inhibition): 99.4%
inhibition at 900 mg (900 mg QD multiple dose, Day 10 3 hours, mean (N=1), read-out: pERK Signal, % Inhibition): 99.6%
inhibition at 900 mg (900 mg QD multiple dose, Day 10 3 hours, median (N=1), read-out: pERK Signal, % Inhibition): 99.6%
inhibition at 900 mg (900 mg QD multiple dose, Day 10 12 hours, mean (N=1), read-out: pERK Signal, % Inhibition): 96.7%
inhibition at 900 mg (900 mg QD multiple dose, Day 10 12 hours, median (N=1), read-out: pERK Signal, % Inhibition): 96.7%
inhibition at 900 mg (900 mg QD multiple dose, Day 10 24 hours, mean (SD), read-out: pERK Signal, % Inhibition): 98.3%
inhibition at 900 mg (900 mg QD multiple dose, Day 10 24 hours, median, read-out: pERK Signal, % Inhibition): 98.5%
inhibition at 75 mg (24 h, Day 1 24 hours, mean (SD), read-out: pERK Signal, % Inhibition): 1%
inhibition at 75 mg (24 h, Day 1 24 hours, median, read-out: pERK Signal, % Inhibition): 4.4%
inhibition at 300 mg (24 h, 300 mg QD multiple dose, Day 1 24 hours, mean (SD), read-out: pERK Signal, % Inhibition): 72.9%
inhibition at 300 mg (24 h, 300 mg QD multiple dose, Day 1 24 hours, median, read-out: pERK Signal, % Inhibition): 71.5%
inhibition at 300 mg (24 h, 300 mg QD, steady state, 24 hours post-last dose, read-out: inhibition of LPS-stimulated pERK): > 90%
inhibition at 600 mg (24 h, 600 mg BID multiple dose, Day 1 24 hours, mean (SD), read-out: pERK Signal, % Inhibition): 97.6%
inhibition at 600 mg (24 h, 600 mg BID multiple dose, Day 1 24 hours, median, read-out: pERK Signal, % Inhibition): 99.5%
inhibition at 600 mg (24 h, 600 mg BID, steady state, 24 hours post-last dose, read-out: inhibition of LPS-stimulated pERK): > 90%
inhibition at 900 mg (24 h, 900 mg QD multiple dose, Day 1 24 hours, mean (SD), read-out: pERK Signal, % Inhibition): 90.2%
inhibition at 900 mg (24 h, 900 mg QD multiple dose, Day 1 24 hours, median, read-out: pERK Signal, % Inhibition): 89.9%
inhibition at 900 mg (24 h, 900 mg QD, steady state, 24 hours post-last dose, read-out: inhibition of LPS-stimulated pERK): > 90%
inhibition at 75 mg (240 h, Day 10 predose, mean (SD), read-out: pERK Signal, % Inhibition): 24.4%
inhibition at 75 mg (240 h, Day 10 predose, median, read-out: pERK Signal, % Inhibition): 41.3%
inhibition at 300 mg (240 h, 300 mg QD multiple dose, Day 10 predose, mean (SD), read-out: pERK Signal, % Inhibition): 93.5%
inhibition at 300 mg (240 h, 300 mg QD multiple dose, Day 10 predose, median, read-out: pERK Signal, % Inhibition): 93.4%
inhibition at 600 mg (240 h, 600 mg BID multiple dose, Day 10 predose, mean (SD), read-out: pERK Signal, % Inhibition): 98.6%
inhibition at 600 mg (240 h, 600 mg BID multiple dose, Day 10 predose, median, read-out: pERK Signal, % Inhibition): 100%
inhibition at 900 mg (240 h, 900 mg QD multiple dose, Day 10 predose, mean (N=1), read-out: pERK Signal, % Inhibition): 97.1%
inhibition at 900 mg (240 h, 900 mg QD multiple dose, Day 10 predose, median (N=1), read-out: pERK Signal, % Inhibition): 97.1%
inhibition of LPS-stimulated pERK in ex vivo whole blood samples (SAD and MAD cohorts): dose-dependent and reversible inhibition
time of peak inhibition of LPS-stimulated pERK (single oral doses, fasted, all dosages, post-dose): 3 hours
